Data on one compound can be found in patent US8946224B2, “Substituted [1,2,4]triazolo[4,3-A]pyrazines for medicaments and pharmaceutical compositions” (Redx Pharma Limited, priority 2010, dated 2015).

Non-standard residues stand in square brackets, D forms with d. Residues, ends and D or L forms follow the SMILES beside them. Sta = CC(C)C[C@H](N)[C@@H](O)CC(=O)O

The target in the experiment is T1, renin (Homo sapiens, UniProt P00797).
T1 sequence (P00797 67-406): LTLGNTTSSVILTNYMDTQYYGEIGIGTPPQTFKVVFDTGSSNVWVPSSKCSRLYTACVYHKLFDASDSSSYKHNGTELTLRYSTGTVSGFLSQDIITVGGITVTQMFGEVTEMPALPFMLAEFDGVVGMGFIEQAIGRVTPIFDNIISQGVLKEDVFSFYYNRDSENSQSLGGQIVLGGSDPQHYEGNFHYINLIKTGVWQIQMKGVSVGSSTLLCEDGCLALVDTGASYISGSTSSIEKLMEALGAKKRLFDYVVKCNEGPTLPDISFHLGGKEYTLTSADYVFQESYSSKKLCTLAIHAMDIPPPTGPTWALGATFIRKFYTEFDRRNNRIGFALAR
In words: Renin inhibition (Comparative Example 98). It is filed as biochemical. Here is the method: The solutions of the compounds to be tested were prepared in DMSO at a concentration of 10 mM, divided into aliquots and stored at −20° C. The stock solutions were further diluted with assay buffer to make final test solutions. All the final test solutions contained no more than 2.0% DMSO.
Data were recorded by PHEARstar^PLUS.
Each assay was repeated for each compound 10 times.

Compound `CC(=O)N[C@@H](Cc1c[nH]cn1)C(=O)N1CCC[C@H]1C(=O)N[C@@H](Cc1ccccc1)C(=O)N[C@H](C(=O)N[C@@H](CC(C)C)[C@@H](O)CC(=O)N[C@@H](CC(C)C)C(=O)N[C@@H](Cc1ccccc1)C(N)=O)C(C)C` [Positive control, Ac-HPFV-(Sta)-LF-NH2] (Ac-HPFV[Sta]LF-NH2) displayed an IC50 of 8.4 nM.

By IC50 is commonly meant the concentration needed to halve the response being measured. A low value points to higher potency.
